According to US11078170B2 (Assembly Biosciences, Inc., priority 2017, dated 2021):

tested on: HBV viral production from HepAD38 cells; experiment: Activity of test compounds on viral production from HepAD38 cells (viral load by qPCR of HBV core sequence in supernatant); format: cell-based; conditions: Hepatitis B virus, 120 h, 5 days incubation, HBV DNA in supernatant by qPCR, top concentration 10 μM, read-out: Viral Load EC50 Activity range
Summary of the method: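 EC50 and CC50 come from four-parameter fits of supernatant viral load and CellTiter-Glo viability, respectively. Viral load was measured by core-region TaqMan qPCR against HBV DNA standards and compared with DMSO controls. Tet-free HepAD38 cells (50,000/well, 2% FBS) were exposed to compound, highest 10 μM, for 5 days at 37° C.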

Compound	EC50 [nM]
CN1C(C(=O)Nc2ccc(F)c(Cl)c2)CC(c2ccc(-c3ccc(C(F)(F)F)nc3)s2)NS1(=O)=O (racemic) [HBV-CSU-158, Cis-N-(3-chloro-4-fluorophenyl)-2-methyl-5-(5-(6-(trifluoromethyl)pyridin-3-yl)thiophen-2-yl)-1,2,6-thiadiazinane-3-carboxamide 1,1-dioxide]	1000 to 5000
CN1C(C(=O)Nc2ccc(F)c(Cl)c2)CC(c2cccs2)N(C)S1(=O)=O (stereo not drawn) [HBV-CSU-023, Cis-N-(3-Chloro-4-fluorophenyl)-2,6-dimethyl-5-(thiophen-2-yl)-1,2,6-thiadiazinane-3-carboxamide 1,1-dioxide]	1000 to 5000
CN1[C@@H](C(=O)Nc2ccc(F)c(Cl)c2)C[C@@H](c2cc(-c3cnn(C(F)(F)F)c3)cs2)NS1(=O)=O (relative stereo) [HBV-CSU-325-ISO-II, Cis-N-(3-Chloro-4-fluorophenyl)-2-methyl-5-(4-(1-(trifluoromethyl)-1H-pyrazol-4-yl)thiophen-2-yl)-1,2,6-thiadiazinane-3-carboxamide 1,1-dioxide]	> 5000
CN1C(C(=O)Nc2ccc(F)c(Cl)c2)CC(c2cc(-c3nncn3C)cs2)NS1(=O)=O (racemic) [HBV-CSU-328, Cis-N-(3-chloro-4-fluorophenyl)-2-methyl-5-(4-(4-methyl-4H-1,2,4-triazol-3-yl)thiophen-2-yl)-1,2,6-thiadiazinane-3-carboxamide 1,1-dioxide]	< 1000
CN1[C@H](C(=O)Nc2cccc(Br)c2)C[C@H](c2cccs2)NS1(=O)=O [HBV-CSU-017-ISO-I, Cis-N-(3-Bromophenyl)-2-methyl-5-(thiophen-2-yl)-1,2,6-thiadiazinane-3-carboxamide 1,1-dioxide]	< 1000
O=C(Nc1ccc(F)c(Cl)c1)C1CC(c2nccs2)NS(=O)(=O)N1CCCN1CCCC1 (stereo not drawn) [HBV-CSU-102, Cis-N-(3-Chloro-4-fluorophenyl)-2-(3-(pyrrolidin-1-yl)propyl)-5-(thiazol-2-yl)-1,2,6-thiadiazinane-3-carboxamide 1,1-dioxide]	> 5000
CN1C(C(=O)Nc2ccc(F)c(Cl)c2)CC(c2cccc(C(F)(F)F)c2)NS1(=O)=O (stereo not drawn) [HBV-CSU-259, Cis-N-(3-chloro-4-fluorophenyl)-2-methyl-5-(3-(trifluoromethyl)phenyl)-1,2,6-thiadiazinane-3-carboxamide 1,1-dioxide]	< 1000
CN1[C@H](C(=O)Nc2ccc(F)c(Cl)c2)C[C@H](c2ccc(-c3ccc(C(F)(F)F)nc3)s2)NS1(=O)=O [HBV-CSU-158-ISO-I, Cis-N-(3-chloro-4-fluorophenyl)-2-methyl-5-(5-(6-(trifluoromethyl)pyridin-3-yl)thiophen-2-yl)-1,2,6-thiadiazinane-3-carboxamide 1,1-dioxide]	< 1000
CN1[C@@H](C(=O)Nc2ccc(F)c(Cl)c2)C[C@@H](c2ccc(F)cn2)NS1(=O)=O [HBV-CSU-032-ISO-II, Cis-N-(3-Chloro-4-fluorophenyl)-5-(5-fluoropyridin-2-yl)-2-methyl-1,2,6-thiadiazinane-3-carboxamide 1,1-dioxide]	> 5000
CN1[C@@H](C(=O)Nc2ccc(F)c(Cl)c2)C[C@@H](c2cc(Cl)c(-c3cnn(C)c3)s2)NS1(=O)=O [HBV-CSU-302-ISO-II, Cis-N-(3-Chloro-4-fluorophenyl)-5-(4-chloro-5-(1-methyl-1H-pyrazol-4-yl)thiophen-2-yl)-2-methyl-1,2,6-thiadiazinane-3-carboxamide 1,1-dioxide]	> 5000
CN1C(C(=O)Nc2ccc(F)c(Cl)c2)CC(c2ccc(-c3cncs3)s2)NS1(=O)=O (racemic) [HBV-CSU-268, Cis-N-(3-Chloro-4-fluorophenyl)-2-methyl-5-(5-(thiazol-5-yl)thiophen-2-yl)-1,2,6-thiadiazinane-3-carboxamide 1,1-dioxide]	< 1000
CN1[C@H](C(=O)Nc2ccc(F)c(Cl)c2)C[C@H](c2ccc(-c3ccnn3C)s2)NS1(=O)=O [HBV-CSU-271-ISO-I, Cis-N-(3-chloro-4-fluorophenyl)-2-methyl-5-(5-(1-methyl-1H-pyrazol-5-yl)thiophen-2-yl)-1,2,6-thiadiazinane-3-carboxamide 1,1-dioxide]	< 1000
CN1[C@H](C(=O)Nc2ccc(F)c(Cl)c2)C[C@H](c2cc(-c3ccccn3)cs2)NS1(=O)=O [HBV-CSU-168-ISO-II, Cis-N-(3-chloro-4-fluorophenyl)-2-methyl-5-(4-(pyridin-2-yl)thiophen-2-yl)-1,2,6-thiadiazinane-3-carboxamide 1,1-dioxide]	< 1000
Cc1nn(C)c(C)c1-c1ccc([C@H]2C[C@@H](C(=O)Nc3ccc(F)c(Cl)c3)N(C)S(=O)(=O)N2)s1 [HBV-CSU-314-ISO-I, Cis-N-(3-chloro-4-fluorophenyl)-2-methyl-5-(5-(1,3,5-trimethyl-1H-pyrazol-4-yl)thiophen-2-yl)-1,2,6-thiadiazinane-3-carboxamide 1,1-dioxide]	< 1000
Cc1nn(C)c(C)c1-c1csc([C@@H]2C[C@H](C(=O)Nc3ccc(F)c(Cl)c3)N(C)S(=O)(=O)N2)c1 (relative stereo) [HBV-CSU-317-ISO-II, Cis-N-(3-chloro-4-fluorophenyl)-2-methyl-5-(4-(1,3,5-trimethyl-1H-pyrazol-4-yl)thiophen-2-yl)-1,2,6-thiadiazinane-3-carboxamide 1,1-dioxide]	< 1000
CN1[C@H](C(=O)Nc2ccc(F)c(Cl)c2)C[C@H](c2ccc(-c3cncnc3)s2)NS1(=O)=O [HBV-CSU-272-ISO-I, Cis-N-(3-chloro-4-fluorophenyl)-2-methyl-5-(5-(pyrimidin-5-yl)thiophen-2-yl)-1,2,6-thiadiazinane-3-carboxamide 1,1-dioxide]	< 1000
CCOCCN1[C@@H](C(=O)Nc2ccc(F)c(Cl)c2)C[C@@H](c2nccs2)NS1(=O)=O [HBV-CSU-142-ISO-I, Cis-N-(3-Chloro-4-fluorophenyl)-2-(2-ethoxyethyl)-5-(thiazol-2-yl)-1,2,6-thiadiazinane-3-carboxamide 1,1-dioxide]	1000 to 5000
CN1[C@@H](C(=O)Nc2ccc(F)c(Cl)c2)C[C@@H](c2ccc(F)cc2)NS1(=O)=O [HBV-CSU-112-ISO-II, Cis-N-(3-Chloro-4-fluorophenyl)-5-(4-fluorophenyl)-2-methyl-1,2,6-thiadiazinane-3-carboxamide 1,1-dioxide]	> 5000
CN1[C@H](C(=O)Nc2ccc(F)c(Cl)c2)C[C@H](c2cc(-c3cccs3)cs2)NS1(=O)=O [HBV-CSU-170-ISO-I]	< 1000
CN1[C@H](C(=O)Nc2cc(F)c(F)c(Br)c2)C[C@H](c2cccs2)NS1(=O)=O [HBV-CSU-049-ISO-I, Cis-N-(3-Bromo-4,5-difluorophenyl)-2-methyl-5-(thiophen-2-yl)-1,2,6-thiadiazinane-3-carboxamide 1,1-dioxide]	< 1000
CN1[C@@H](C(=O)Nc2ccc(F)c(Cl)c2)C[C@@H](c2cc(-c3cnn(C)c3)c(Cl)s2)NS1(=O)=O [HBV-CSU-306-ISO-II, Cis-5-(5-chloro-4-(1-methyl-1-pyrazol-4-yl)thiophen-2-yl)-N-(3-chloro-4-fluorophenyl)-2-methyl-1,2,6-thiadiazinane-3-carboxamide 1,1-dioxide]	> 5000
CN1[C@@H](C(=O)Nc2ccc(F)c(Cl)c2)C[C@@H](c2cc(-c3nncn3C)cs2)NS1(=O)=O [HBV-CSU-328-ISO-II, Cis-N-(3-chloro-4-fluorophenyl)-2-methyl-5-(4-(4-methyl-4H-1,2,4-triazol-3-yl)thiophen-2-yl)-1,2,6-thiadiazinane-3-carboxamide 1,1-dioxide]	> 5000
CN1[C@H](C(=O)Nc2ccc(F)c(Cl)c2)C[C@H](c2ccc3c(c2)ncn3C)NS1(=O)=O [HBV-CSU-360-ISO-I, Cis-N-(3-chloro-4-fluorophenyl)-2-methyl-5-(1-methyl-1H-benzo[d]imidazol-5-yl)-1,2,6-thiadiazinane-3-carboxamide 1,1-dioxide]	1000 to 5000
CN1C(C(=O)Nc2ccc(F)c(Cl)c2)CC(c2ccc(C#N)cc2)NS1(=O)=O (racemic) [HBV-CSU-213, Cis-N-(3-chloro-4-fluorophenyl)-5-(4-cyanophenyl)-2-methyl-1,2,6-thiadiazinane-3-carboxamide 1,1-dioxide]	< 1000
[2H]C1[C@]([2H])(C(=O)Nc2ccc(F)c(Cl)c2)N(C)S(=O)(=O)N[C@]1([2H])c1ccc(Br)s1 (stereo in doubt) [HBV-CSU-371-ISO-II, Cis-5-(5-Bromothiophen-2-yl)-N-(3-chloro-4-fluorophenyl)-2-methyl-1,2,6-thiadiazinane-3,4,5-d3-3-carboxamide 1,1-dioxide]	1000 to 5000
CN1C(C(=O)Nc2ccc(F)c(Cl)c2)CC(c2ncc(-c3ccc(F)cn3)s2)NS1(=O)=O (racemic) [HBV-CSU-252, Cis-N-(3-Chloro-4-fluorophenyl)-5-(5-(5-fluoropyridin-2-yl)thiazol-2-yl)-2-methyl-1,2,6-thiadiazinane-3-carboxamide 1,1-dioxide]	< 1000
CN1[C@H](C(=O)Nc2ccc(F)c(Cl)c2)C[C@H](c2ccc(-c3cnco3)s2)NS1(=O)=O [HBV-CSU-269-ISO-I, Cis-N-(3-Chloro-4-fluorophenyl)-2-methyl-5-(5-(oxazol-5-yl)thiophen-2-yl)-1,2,6-thiadiazinane-3-carboxamide 1,1-dioxide]	< 1000
COC(C)(C)CCN1[C@@H](C(=O)Nc2ccc(F)c(Cl)c2)C[C@@H](c2nccs2)NS1(=O)=O [HBV-CSU-083-ISO-I, Cis-N-(3-Chloro-4-fluorophenyl)-2-(3-methoxy-3-methylbutyl)-5-(thiazol-2-yl)-1,2,6-thiadiazinane-3-carboxamide 1,1-dioxide]	> 5000
CN1C(C(=O)Nc2ccc(F)c(Cl)c2)CC(c2ccc(-c3cnco3)s2)NS1(=O)=O (racemic) [HBV-CSU-269, Cis-N-(3-Chloro-4-fluorophenyl)-2-methyl-5-(5-(oxazol-5-yl)thiophen-2-yl)-1,2,6-thiadiazinane-3-carboxamide 1,1-dioxide]	< 1000
